Data published in paper PMC3479139, “Diverse Small Molecule Inhibitors of Human Apurinic/Apyrimidinic Endonuclease APE1 Identified from a Screen of a Large Public Collection” (PLoS ONE, 2012).

Experiments:
[1] = target: double-stranded 17-mer DNA fragment; assay: ThO (Thiazole Orange) DNA displacement assay; format: binding; conditions: read-out: ThO-DNA binding IC50;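 note: miniaturized displacement of the intercalating dye from unlabeled duplex DNA, used to flag nonspecific DNA binders, chiefly intercalators, groove binders may be missed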
Description: The double-stranded 17-mer DNA fragment used in the ThO DNA binding assay was of the same sequence as the fluorogenic HTS substrate but carried no dye labels.
(§1) In order to screen out nonselective compounds, such as non-specific DNA binders and inhibitors of related enzymes, we used a miniaturized ThO DNA displacement assay and a counterscreen against the bacterial endonuclease E. coli Endo IV, respectively, following the previously published protocols [21].
To detect screening hits that inhibit APE1 activity through non-specific DNA interactions, we employed a previously established miniaturized ThO dye displacement assay [21]. […] We note that the ThO assay reports primarily on DNA binders acting through intercalation, while potentially missing other types of DNA binders, such as those acting through the minor groove.

E. coli Endo IV = target: T1, E. coli Endo IV (Escherichia coli, UniProt P0A6C1); assay: E. coli Endo IV profiling counterscreen; format: biochemical; conditions: read-out: EndoIV IC50;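 note: selectivity counterscreen of candidate APE1 inhibitors against the bacterial endonuclease Endo IV, run in the same assay format as the primary APE1 high-throughput screen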
T1 construct: made in house
Description: as §1
To probe the selectivity of the candidate APE1 inhibitors, we tested them against E. coli EndoIV [36], employing the same assay as used in the HTS.

APE1 [2] = target: T2, APE1 (Homo sapiens, UniProt P27695); assay: Gel-based APE1 incision assay with fluorescence (TAMRA) detection; format: biochemical
T2 construct: made in house
Protocol: To test the compounds’ inhibitory activity after the primary screen, two assays designed to monitor the cleavage of substrate to product through electrophoretic separation were utilized. The radiotracer incision assay, utilizing a ^32P-labeled substrate, was performed essentially as described [21], [31], [32]. Incision reactions utilizing ^32P-labeled substrate were carried out for 5 min at 37°C. After the addition of an equal volume of stop buffer (0.05% bromophenol blue and xylene cyanol, 20 mM EDTA, 95% formamide), the substrate and product were separated on a standard polyacrylamide denaturing gel and quantified by PhosphorImager analysis [32]. […] APE1 cleavage of the substrate results in a 18-mer TAMRA-labeled fragment which was separated by a non-denaturing polyacrylamide gel electrophoresis and quantitated in a Gel Doc XR imaging system, BioRad (Hercules, CA). The advantage of this assay is that it can be used in a relatively high throughput mode with the inhibitors tested at a range of concentrations (0.17 µM to 125 µM was used here). APE1 (0.15 nM) was added to a reaction mixture of 20 µL containing assay buffer (40 mM HEPES pH 7.5, 50 mM NaCl, 1 mM MgCl2 and 2 mM DTT), and labeled ds DNA substrate (final 75 nM). The mixture was incubated at RT for 15 min, and the reaction was stopped by the addition 20 µL of 2X dye stop solution (10% glycerol, 20 mM EDTA and bromophenol blue). Then 10 µL of the mixture was resolved on 20% polyacrylamide gel in 1X Tris-borate EDTA running buffer at 250 V for 40 min.
To eliminate false positive hits, all 595 confirmed molecules were tested for their ability to inhibit APE1 incision activity using biochemical assays that involve electrophoretic separation of the substrate and cleavage product.

APE1 [3] = target: T2, APE1; assay: Fluorescence polarization (FP) displacement assay of APE1 binding to AP-DNA probe; conditions: read-out: FP IC50;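 note: TAMRA 5′-labeled duplex DNA with THF abasic site (5 nM) and APE1 (20 nM), Mg2+-free buffer, 15 min at room temperature, inhibition seen as lowered polarization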
APE1 [4] = target: T2, APE1; assay: Fluorogenic kinetic qHTS APE1 incision assay (primary screen and retest of cherrypicked samples); format: biochemical;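 note: purified APE1 cleaving a fluorophore/dark-quencher labelled 17-mer duplex DNA bearing a tetrahydrofuran AP site, fluorescence rise followed kinetically over the first 2 min, inhibition normalized to controls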
[5] = estimated IC50, fluorophore detection, entries 113-223, read-out: F-PAGE Assay IC50
[6] = initial quantitative high-throughput screen, read-out: APE1 qHTS IC50
[7] = retest of cherrypicked sample, read-out: APE1 Retest IC50
[8] = entries 113-223: fluorophore detection, estimated IC50, read-out: Gel-based electrophoretic separation assay with fluorophore detection, estimated IC50 (column headed Radiotracer Assay (%Activity))

T2 sequence (P27695 whole entry): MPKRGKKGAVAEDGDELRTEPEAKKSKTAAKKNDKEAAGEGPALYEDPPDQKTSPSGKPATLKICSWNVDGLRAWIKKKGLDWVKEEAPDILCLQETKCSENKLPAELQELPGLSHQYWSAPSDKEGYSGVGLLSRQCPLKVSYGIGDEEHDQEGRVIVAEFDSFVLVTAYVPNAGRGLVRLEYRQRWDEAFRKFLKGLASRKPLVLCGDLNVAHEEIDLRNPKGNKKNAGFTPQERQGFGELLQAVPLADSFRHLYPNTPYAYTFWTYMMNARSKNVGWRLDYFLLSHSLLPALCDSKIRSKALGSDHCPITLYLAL

SMILES | IC50 [1] [µM] | IC50 (E. coli Endo IV) [µM] | IC50 (APE1 [2]; [5]) [µM] | IC50 (APE1 [3]) [µM] | IC50 (APE1 [4]; [6]) [µM] | IC50 (APE1 [4]; [7]) [µM] | IC50 (APE1 [2]; [8]) [µM]
CCN(CC(=O)Nc1c(F)cccc1F)C(=O)/C=C/c1ccc2ccccc2n1 [MLS001128172] | > 57 | > 57 | 4 | > 57 | 1.7 | 20.4 | 
NS(=O)(=O)c1ccc(NC(=O)CSc2nnc(NC3CC3)s2)cc1 [MLS002169032] | > 57 | > 57 | 6.3 | > 57 | 10.6 | 10.2 | 
CC(=O)c1cccc(OCC(=O)N(C)CC(=O)NCc2ccco2)c1 [MLS002251323] | > 57 | > 57 | 4 | > 57 | 9.5 | 9.1 | 
Cn1cnnc1SCC(=O)Nc1ncc([N+](=O)[O-])s1 [MLS002252055] | 40.8 | > 57 | 5 | > 57 | 8.4 | 6.5 | 
O=C(c1cccc(-n2cccc2)c1)N1CCN(S(=O)(=O)c2ccccc2)CC1 [MLS001139594] | > 57 | > 57 | 2.5 | > 57 | 1.5 | 11.5 | 
COc1ccc(NC(=O)c2cc(-c3ccco3)nc3ccccc23)cn1 [MLS002164354] | > 57 | 22.9 | 7.1 | 36.3 | 11.9 | 14.5 | 
COC(=O)c1cc(NC(=O)Cc2cccs2)cc(C(=O)OC)c1 [MLS001211293] | > 57 | > 57 | 7.1 | > 57 | 13.4 |  | 
CSCC[C@H](NS(=O)(=O)c1ccc(C(C)=O)cc1)c1nnc2ccccn12 [MLS001158971] | > 57 | > 57 |  | > 57 | 21.2 | 9.1 | 22.4
Cc1ccc(NC(=O)C(c2ccccc2)N2CCN(CC(=O)N3CCOCC3)CC2)cc1Cl (stereo not drawn) [MLS002162303] | > 57 | > 57 | 3.5 | > 57 | 10.6 | 9.1 | 
CN(CC(=O)Nc1c(Cl)cccc1Cl)C(=O)c1cccc(-n2cccc2)c1 [MLS001079471] | > 57 | > 57 | 2.5 | 10.2 | 4.2 | 11.5 | 
CCOc1ccc(NC(=O)c2cccc(-n3cccc3)c2)cc1S(=O)(=O)N1CCOCC1 [MLS002164959] | > 57 | > 57 | 2.8 | > 57 | 1.3 | 11.5 | 
COc1ccc(Cl)cc1NC(=O)CCS(=O)(=O)c1ccc(Br)cc1 [MLS001202289] | 45.7 | > 57 |  | > 57 | 11.9 | 45.7 | 12.6
Cc1ccc(C)c(S(=O)(=O)Nc2ccc3oc(C)c(C(=O)O)c3c2)c1 [MLS000948181] | > 57 | > 57 | 2.8 | > 57 | 13.4 | 20.4 | 
Cc1cccc(NC(=O)CNC(=O)c2cccc(-n3cccc3)c2)c1C [MLS001141795] | > 57 | > 57 | 1.1 | > 57 | 1.9 | 6.5 | 
NS(=O)(=O)c1cc(C(=O)NC2CCSc3ccccc32)ccc1Cl (stereo not drawn) [MLS001233727] | > 57 | > 57 | 0.1 | > 57 | 0.1 | 0.3 | 
O=C(CSc1nc2sc3c(c2c(=O)n1-c1ccccc1)CCCC3)NN=Cc1ccccc1C(=O)O [MLS001147809] | > 57 | > 57 |  | > 57 | 10.6 | 14.5 | 12.6
CCCCN(C(=O)c1cccc(-n2cccc2)c1)c1c(N)n(Cc2ccccc2)c(=O)[nH]c1=O [MLS001159279] | > 57 | > 57 | 2.8 | > 57 | 2.7 | 12.9 | 
c1ccc2c(NCCc3c[nH]c4ccccc34)c3ccccc3nc2c1 [MLS001195935] | 32.4 | > 57 |  | > 57 | 18.9 | 18.2 | 25.1
O=C(O)C1CCCCC1C(=O)Nc1cccc(Br)c1 (stereo not drawn) [MLS002152987] | > 57 | > 57 | 0.9 | > 57 | 0.5 | 5.1 | 
Cc1coc2c(C)c3oc(=O)c(CCC(=O)N[C@@H](C)C(=O)N[C@@H](Cc4ccccc4)C(=O)O)c(C)c3cc12 [MLS001140219] | > 57 | > 57 |  | > 57 | 13.4 | 18.2 | 20

SMILES | IC50 [1] [µM] | IC50 (E. coli Endo IV) [µM] | IC50 (APE1 [2]; [5]) [µM] | IC50 (APE1 [3]) [µM] | IC50 (APE1 [4]; [6]) [µM] | IC50 (APE1 [4]; [7]) [µM] | IC50 (APE1 [2]; [8]) [µM]
COC(=O)c1ccn(CC(=O)NC2CCCCC2)n1 [MLS001030262] | > 57 | > 57 | 5.6 | > 57 | 29.9 | 12.9 | 
CCNc1nc(NCC)n2c(SCC(=O)Nc3ccc(OC(F)F)cc3)nnc2n1 [MLS001234379] | > 57 | > 57 | 7.1 | > 57 | 10.6 | 11.5 | 
O=C(CSc1nnc(CNC(=O)c2c(F)cccc2F)o1)NCc1ccco1 [MLS001235900] | > 57 | > 57 |  | 18.2 | 10.6 | 45.7 | 12.6
COc1ccc(NC(=O)COC(=O)c2cc3c(s2)CCC3)cc1 [MLS002159150] | > 57 | > 57 | 7.1 | 36.3 | 5.3 | 11.5 | 
CC(=O)c1ccccc1NS(=O)(=O)c1cccc2nsnc12 [MLS001008046] | > 57 | > 57 | 5.6 | 28.9 | 5.3 | 8.1 | 
O=C(O)c1ccc(-c2ccc(/C=c3/sc4nc5ccccc5n4c3=O)o2)cc1Cl [MLS001196440] | 40.8 | > 57 | 7.1 | > 57 | 9.5 | 7.3 | 
O=C(NC1CC1)C1CCN(S(=O)(=O)c2cc([N+](=O)[O-])ccc2Cl)CC1 [MLS002162311] | 36.3 | > 57 | 8.9 | > 57 | 10.6 | 32.4 | 
Nc1nc(=S)c2ncn(C3OC(CO)C(O)C3O)c2[nH]1 (stereo not drawn) [MLS000738229] | 28.9 | > 57 | 2.5 | > 57 | 13.4 | 3.6 | 
O=C(CSc1nnc(Nc2ccccc2F)s1)NC(=O)CN1CCCC1=O [MLS002163634] | > 57 | > 57 | 8.9 | 18.2 | 10.6 | 10.2 | 
Nc1c(/C=C2/C=CC(=O)C(O)=C2)c(=O)nc2sc(CC(=O)N3CCCCC3)nn12 [MLS001139223] | > 57 | > 57 | 2.5 | > 57 | 1.9 | 2 | 
CC(=O)Nc1ccc(S(=O)(=O)NCCC(=O)OCC(=O)N2CCN(C(=O)c3ccco3)CC2)cc1 [MLS001078987] | > 57 | > 57 |  | 20.4 | 16.8 |  | 22.4
Cc1sc2ncnc(SCC(=O)Nc3ncccc3O)c2c1C [MLS002181609] | > 57 | > 57 |  | 20.4 | 29.9 | 10.2 | 14.1
COc1cccc(NC(=O)CN(C)C(=O)c2cc3c(s2)CCC3)c1 [MLS001142077] | 20.4 | > 57 |  | > 57 | 10.6 | 32.4 | 10
O=C1C=C(c2ccc3cc[nH]c3c2)C[C@@H](c2ccc3c(c2)OCO3)C1 [MLS001060910] | > 57 | > 57 | 3.2 | > 57 | 11.9 | 18.2 | 
CCNc1nc(NCC)n2c(SCC(=O)Nc3ccccc3C(F)(F)F)nnc2n1 [MLS001234389] | > 57 | > 57 |  | > 57 | 21.2 | 12.9 | 14.1
Nc1c(/C=C2/C=CC(=O)C(O)=C2)c(=O)nc2sc(CC(=O)N3CCCC3)nn12 [MLS001139292] | > 57 | > 57 | 1 | > 57 | 10.6 | 6.5 | 
C=CC1=C(C(=O)O)N2C(=O)[C@@H](NC(=O)/C(=N\OCC(=O)O)c3csc(N)n3)[C@H]2SC1 [MLS002222332] | > 57 | > 57 | 2.8 | > 57 | 11.9 |  | 
O=C(C[C@@H]1C/C=C\C[C@H](NC(=O)OCC2c3ccccc3-c3ccccc32)C(=O)OC[C@@H]2CCCN2C1=O)NCCO [MLS002320455] | > 57 | > 57 |  | > 57 | 9.5 | 10.2 | 22.4
N#Cc1c(NC(=O)COC(=O)c2ccc(O)cc2O)sc2c1CCC2 [MLS001159876] | 11.5 | > 57 |  | > 57 | 11.9 | 18.2 | 11.2
